SMILES strings stand for the structures. Where a name gives a salt, the structure may show the parent alone.

These results are taken from US7375222B2, “2,4,6-Triamino-1,3,5-triazine derivative” (Astellas Pharma Inc., priority 2002, dated 2008).

In one series the target is T1, BEC 1 potassium channel (Homo sapiens, UniProt Q9ULD8).
T1 construct: expressed in transfected cells
T1 sequence (Q9ULD8 1-1083): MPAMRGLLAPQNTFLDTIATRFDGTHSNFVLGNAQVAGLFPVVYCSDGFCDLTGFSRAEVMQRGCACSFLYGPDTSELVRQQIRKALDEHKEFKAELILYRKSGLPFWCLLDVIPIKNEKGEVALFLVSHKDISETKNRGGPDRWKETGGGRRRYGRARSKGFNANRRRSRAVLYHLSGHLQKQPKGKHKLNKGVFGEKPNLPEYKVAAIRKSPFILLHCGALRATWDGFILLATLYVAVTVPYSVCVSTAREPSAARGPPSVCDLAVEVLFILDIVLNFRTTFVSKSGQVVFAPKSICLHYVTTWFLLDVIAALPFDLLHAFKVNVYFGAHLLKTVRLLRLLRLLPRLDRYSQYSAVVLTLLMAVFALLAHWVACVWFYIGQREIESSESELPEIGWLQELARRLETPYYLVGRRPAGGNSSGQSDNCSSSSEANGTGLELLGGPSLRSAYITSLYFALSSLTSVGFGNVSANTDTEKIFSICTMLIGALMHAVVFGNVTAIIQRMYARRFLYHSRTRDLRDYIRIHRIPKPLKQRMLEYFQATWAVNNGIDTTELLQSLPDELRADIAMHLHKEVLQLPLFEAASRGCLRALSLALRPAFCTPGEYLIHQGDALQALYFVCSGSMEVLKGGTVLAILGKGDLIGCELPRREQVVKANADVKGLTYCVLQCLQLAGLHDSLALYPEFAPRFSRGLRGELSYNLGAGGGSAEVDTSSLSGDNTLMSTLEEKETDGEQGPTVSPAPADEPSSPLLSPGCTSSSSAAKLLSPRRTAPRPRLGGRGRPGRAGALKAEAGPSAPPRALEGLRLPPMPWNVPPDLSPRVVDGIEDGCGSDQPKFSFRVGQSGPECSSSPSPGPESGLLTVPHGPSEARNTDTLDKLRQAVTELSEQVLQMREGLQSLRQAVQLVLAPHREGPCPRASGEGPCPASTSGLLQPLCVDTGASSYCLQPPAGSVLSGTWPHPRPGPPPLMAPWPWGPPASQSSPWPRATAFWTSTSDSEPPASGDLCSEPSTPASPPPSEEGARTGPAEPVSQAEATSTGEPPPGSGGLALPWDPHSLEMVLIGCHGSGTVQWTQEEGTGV
Kind of series: BEC 1 inhibitory activity using released amount of 86Rb ions from BEC 1-expressing cells. It is filed as cell-based. To be noted: 86Rb ion release, BEC 1-stably expressing CHO (dhfr-deficient) cell, 100 mM KCl stimulation; read-out: BEC1 IC50. The procedure: In general, the potassium channel can pass Rb^+ ion similar to K^+ ion, so that the channel activity can be measured using release of a radioisotope ^86Rb^+ as a marker. By incubating cells expressing the novel potassium channel protein together with ^86RbCl (e.g., 18 hr, 37° C.), ^86Rb^+ can be incorporated into the cells. The cells are washed with a low K^+ concentration physiological saline (e.g., 4.5 mM K^+) and then suspended in the same solution. When a high K^+ concentration solution (e.g., 100 mM in final concentration) is added to the cell suspension, membrane potential of the cell is depolarized and the potassium channel therefore is activated. As a result, the intracellular ^86Rb^+ is released into the extracellular part, thus radioactivity of the extracellular solution can be used as a marker of the channel activity. It is possible to screen a compound and a peptide capable of modifying activity of the BEC 1 potassium channel protein, by comparing the radioactivity released into the extracellular part when the high K^+ concentration solution is added in the presence and absence of each drug to be tested.
Method for Measuring BEC 1 Inhibitory Activity of Compounds Using Released Amount of ^86Rb ions as the Index
The channel activity of BEC 1 was measured in accordance with the method described in WO 99/37677, using amount of a radioisotope ^86Rb ion released from a BEC 1-expressing cell as the index. That is, when an ^86Rb ion-incorporated BEC 1-expressing cell was stimulated with 100 mM KCl, the radioactivity released from the cell was used as the channel activity of BEC 1. The ^86Rb ions were incorporated into a BEC 1-stably expressing cell by culturing the cell (3 hours, 37° C.) in the presence of ^86RbCl (0.5 μCi/ml), and the un-incorporated ^86Rb ions were removed by washing three times with HEPES-buffered saline (pH 7.4, 2.5 mM KCl). The cells were incubated with HEPES-buffered saline containing a compound to be tested at room temperature for 15 minutes and then further incubated with 100 mM KCl-containing HEPES-buffered saline (pH 7.4) containing the compound to be tested at room temperature for 5 minutes. The extracellular medium was recovered, and then the remaining cells were lysed with 0.1 N NaOH and recovered.
The Cerenkov radioactivity of the extracellular medium and cell lysate was respectively measured, and their total was used as the total radioactivity. The released amount of ^86Rb ions was expressed by the percentage of extracellular medium radioactivity based on the total radioactivity. The value obtained in the presence of the compound was used as a test value, and the value obtained in the absence of the compound as a control value and the value obtained when not stimulated with 100 mM KCl as a blank value. Inhibitory action of each compound was expressed by % inhibition, namely (control value−test value)×100/(control value−blank value), or by an IC50 value calculated from the % inhibition. As the test results of typical compounds are shown in the following Tables 2 and 3, it was confirmed that said compounds have the BEC 1 potassium channel inhibitory action.
In this connection, as the BEC 1-expressing cell, a BEC 1-stably expressing cell prepared in accordance with the method described in WO 99/37677 using a dihydrofolate reductase (dhfr)-deficient strain of a Chinese hamster ovary cell was used.
On to `COCCNc1nc(Nc2ccccc2)nc(Nc2ccccc2)n1` [compound 17], for which the IC50 stood at 290 nM.

In the case of `CCCCCNc1nc(Nc2ccccc2)nc(Nc2ccccc2)n1` [compound 14], the IC50 was 390 nM.

Tested on in another series: not given
Test: not given
Details: not given
Regarding `OCCOCCNc1nc(Nc2ccc(F)cc2)nc(Nc2ccc(F)cc2)n1` (as salt: HCl) [compound 38], the melting point is 151 to 152 °C.

The compound `OCCNc1nc(Nc2ccccc2)nc(Nc2ccc(F)cc2)n1` (as salt: HCl) [Example 773] had a melting point of 209 to 211 °C.

Compound `COCCNc1nc(Nc2ccccc2)nc(Nc2ccc(F)cc2)n1` (as salt: HCl) [Example 771] returned a melting point of 179 to 181 °C.

As to `Fc1ccc(Nc2nc(NCc3ccccc3)nc(Nc3ccc(F)cc3)n2)cc1` (as salt: HCl) (hydrate or solvate) [compound 28], the melting point is 176 to 178 °C.

In turn, `Fc1ccc(Nc2nc(NCc3ccnc(F)c3)nc(Nc3ccc(Cl)cc3)n2)cc1` (as salt: HCl) [Example 797] yielded a melting point of 214 to 215 °C.

`O=C1OCCC1CNc1nc(Nc2ccccc2)nc(Nc2ccccc2)n1` (stereo not shown) (as salt: HCl) (hydrate or solvate) [compound 24] came in with a melting point of 138 to 140 °C.

`Fc1ccc(Nc2nc(NCc3ccco3)nc(Nc3ccc(F)cc3)n2)cc1` (as salt: HCl) [compound 30]: the melting point was in the range of 179 to 180 °C.

`COCCNc1nc(Nc2ccccc2)nc(Nc2ccc(OC)cc2)n1` (as salt: HCl) [Example 808] came in with a melting point of 169 to 170 °C.

Regarding `Nc1cccc(CNc2nc(Nc3ccccc3)nc(Nc3ccc(F)cc3)n2)n1` (hydrate or solvate) [Example 819], the melting point was in the range of 164 to 165 °C.

`COCCNc1nc(Nc2ccc(F)cc2)nc(Nc2ccc(F)cc2)n1` (as salt: HCl) [compound 35] displayed a melting point of 175 to 176 °C.

Compound `Fc1ccc(Nc2nc(NCC3CCCO3)nc(Nc3ccc(F)cc3)n2)cc1` (stereo not shown) (as salt: HCl) (hydrate or solvate) [compound 36] returned a melting point of 171 to 174 °C.

Regarding `CCN(CC)CCCC(C)Nc1nc(Nc2ccccc2)nc(Nc2ccc(F)cc2)n1` (stereo not shown) (hydrate or solvate) [Example 794], the melting point lay in the range of 184 to 187 °C.

For the compound `COCCNc1nc(Nc2ccccc2)nc(Nc2ccccc2)n1` [compound 17], the melting point was in the range of 128 to 129 °C.

The compound `OCCCNc1nc(Nc2ccccc2)nc(Nc2ccc(F)cc2)n1` (hydrate or solvate) [Example 774] showed a melting point of 188 to 189 °C.

In the case of `OCCCCNc1nc(Nc2ccccc2)nc(Nc2ccc(F)cc2)n1` (as salt: HCl) [Example 775], the melting point lay in the range of 185 to 186 °C.

Take `CCCCCNc1nc(Nc2ccccc2)nc(Nc2ccccc2)n1` [compound 14]: the melting point lay within 78 to 81 °C.

For the compound `Fc1ccc(Nc2nc(NCc3cccs3)nc(Nc3ccc(F)cc3)n2)cc1` (as salt: HCl) [compound 31], the melting point fell in the range of 180 to 182 °C.

`OCCOCCNc1nc(Nc2ccccc2)nc(Nc2ccccc2)n1` (as salt: HCl) [compound 23]: the melting point lay within 167 to 169 °C.

`Nc1cc(CNc2nc(Nc3ccccc3)nc(Nc3ccc(F)cc3)n2)ccn1` (as salt: salt) (hydrate or solvate) [Example 747] gave a melting point of 164 to 199 °C.

Compound `OCCOCCNc1nc(Nc2ccccc2)nc(Nc2ccc(F)cc2)n1` (as salt: HCl) [Example 777] yielded a melting point of 141 to 142 °C.

`Fc1ccc(Nc2nc(NCc3ccnc(F)c3)nc(Nc3ccccc3)n2)cc1` (as salt: HCl) [Example 744] gave a melting point of 175 to 177 °C.

As for `Fc1ccc(CNc2nc(Nc3ccc(F)cc3)nc(Nc3ccc(F)cc3)n2)cc1` (as salt: HCl) [compound 29], the melting point is 166 to 167 °C.

`[O-][n+]1ccc(CCNc2nc(Nc3ccccc3)nc(Nc3ccccc3)n2)cc1` (as salt: salt) (hydrate or solvate) [Example 740] displayed a melting point of 161 to 162 °C.

With `CN(C)Nc1nc(Nc2ccccc2)nc(Nc2ccc(F)cc2)n1` (as salt: HCl) [Example 791], the melting point fell in the range of 154 to 156 °C.

Compound `OCCCNc1nc(Nc2ccccc2)nc(Nc2ccccc2)n1` (as salt: HCl) [compound 21] had a melting point of 191 to 192 °C.

In turn, `C[C@H](CO)Nc1nc(Nc2ccccc2)nc(Nc2ccc(F)cc2)n1` (as salt: HCl) [Example 779] had a melting point of 193 to 195 °C.

In the case of `CSCCCNc1nc(Nc2ccccc2)nc(Nc2ccccc2)n1` (as salt: HCl) [compound 19], the melting point fell in the range of 162 to 163 °C.

The compound `C#CCNc1nc(Nc2ccccc2)nc(Nc2ccccc2)n1` (as salt: HCl) [compound 16] returned a melting point of 195 to 197 °C.

In turn, `CC(CCCC(C)(C)O)Nc1nc(Nc2ccccc2)nc(Nc2ccccc2)n1` (stereo not shown) (as salt: HCl) [Example 742] registered a melting point of 112 to 113 °C.

In turn, `CC(C)Nc1nc(Nc2ccccc2)nc(Nc2ccc(Cl)cc2)n1` (as salt: HCl) [Ex 46] yielded a melting point of 201 to 203 °C.

As to `CONc1nc(Nc2ccccc2)nc(Nc2ccc(F)cc2)n1` (as salt: HCl) (hydrate or solvate) [Example 789], the melting point fell in the range of 140 to 141 °C.

As for `c1ccc(Nc2nc(NCC3CCOCC3)nc(Nc3ccccc3)n2)cc1` (as salt: salt) (hydrate or solvate) [Example 741], the melting point fell in the range of 191 to 193 °C.

`CC(C)Nc1nc(Nc2ccccc2)nc(Nc2ccc(C(F)(F)F)cc2)n1` (as salt: HCl) [Ex 49] registered a melting point of 198 to 200 °C.

Take `COCCCNc1nc(Nc2ccccc2)nc(Nc2ccccc2)n1` (as salt: HCl) [compound 18]: the melting point lay within 154 to 155 °C.

`COc1ccc(Nc2nc(Nc3ccccc3)nc(NC(C)C)n2)cc1` (as salt: HCl) (hydrate or solvate) [Ex 48] had a melting point of 174 to 177 °C.

The compound `Fc1ccc(Nc2nc(NCc3ccnc(F)c3)nc(Nc3ccc(F)cc3)n2)cc1` (as salt: HCl) [Example 743] came in with a melting point of 191 to 192 °C.

For the compound `COc1cccc(Nc2nc(Nc3cccc(OC)c3)nc(NC(C)C)n2)c1` (as salt: HCl) [compound 40], the melting point was in the range of 180 to 182 °C.

`OCCCCCNc1nc(Nc2ccc(F)cc2)nc(Nc2ccc(F)cc2)n1` (as salt: HCl) [compound 37] returned a melting point of 162 to 163 °C.

As a reminder, the IC50 is the concentration that inhibits the measured activity by half. In general, melting point refers to the temperature of the solid-liquid transition.
